pIC50: −log10 of the molar value. Structures can show the parent of a compound that is named as a salt. Where two headings read alike, the source gives them in different places.
Experiments:
[1] = target: human JAK1 (a.a. 837-1142) (Homo sapiens, UniProt P23458); experiment: In vitro JAK kinase assay (HTRF, phosphorylation of biotinylated peptide), JAK1; assay type: biochemical; conditions: 1 mM ATP
Procedure, shortened: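 Phosphorylation of a biotinylated peptide was run at room temperature for 1 hour using the N-terminally His-tagged JAK1 kinase domain (837-1142) from insect cells. After an EDTA stop, Eu-Py20 and SA-APC gave an HTRF read; values are binned potency ranges.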

JAK2 (a.a. 828-1132) = target: T1, JAK2 (a.a. 828-1132) (Homo sapiens, UniProt O60674); experiment: In vitro JAK kinase assay (HTRF, phosphorylation of biotinylated peptide), JAK2; assay type: biochemical; conditions: 1 mM ATP
T1 construct: JAK2 (a.a. 828-1132); His tag (N)
T1 sequence (O60674 828-1132): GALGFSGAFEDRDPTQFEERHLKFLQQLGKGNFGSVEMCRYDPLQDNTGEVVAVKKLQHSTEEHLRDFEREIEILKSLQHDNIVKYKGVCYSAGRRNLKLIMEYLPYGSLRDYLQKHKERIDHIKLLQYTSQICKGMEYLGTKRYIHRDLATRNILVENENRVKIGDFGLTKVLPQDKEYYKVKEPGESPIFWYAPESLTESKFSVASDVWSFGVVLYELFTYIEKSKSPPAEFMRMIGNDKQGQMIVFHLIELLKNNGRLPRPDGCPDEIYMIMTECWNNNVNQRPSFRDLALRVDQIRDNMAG
Procedure, shortened: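 HTRF detection (Eu-Py20, SA-APC, 40 min) of biotinylated-peptide phosphorylation, following a 1 hour room-temperature reaction quenched with 45 mM EDTA. Enzymes: insect-cell-expressed N-terminal His-tagged JAK1 (837-1142) and JAK2 (828-1132) catalytic domains. Activities reported in ranged categories.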

human JAK1 (a.a. 837-1142), sequence (P23458 849-1154): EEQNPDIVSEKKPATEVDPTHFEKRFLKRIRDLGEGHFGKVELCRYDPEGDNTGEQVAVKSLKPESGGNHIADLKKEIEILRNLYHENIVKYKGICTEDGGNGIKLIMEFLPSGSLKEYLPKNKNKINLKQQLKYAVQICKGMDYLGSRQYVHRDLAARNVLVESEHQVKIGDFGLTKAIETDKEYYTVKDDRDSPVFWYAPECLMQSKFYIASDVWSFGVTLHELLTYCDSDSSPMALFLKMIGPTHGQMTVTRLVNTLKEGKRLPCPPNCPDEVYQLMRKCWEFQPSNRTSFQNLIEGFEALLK

SMILES | pIC50 ([1]; Table F) | pIC50 (JAK2 (a.a. 828-1132); Table F) | other results
N#CC[C@]1(n2cc(-c3ncnc4[nH]ccc34)cn2)C[C@@H](N2CCC(Oc3cc(CO)cc(C(F)(F)F)n3)CC2)C1 (single isomer, unassigned) [Example 124, {cis-3-(4-{[4-(hydroxymethyl)-6-(trifluoromethyl)pyridin-2-yl]oxy}piperidin-1-yl)-1-[4-(7H-pyrrolo[2,3-d]pyrimidin-4-yl)-1H-pyrazol-1-yl]cyclobutyl}acetonitrile] | 7.00 to 7.60 | < 7.00 | 
COCc1cc(OC2CCN([C@H]3C[C@@](CC#N)(n4cc(-c5ncnc6[nH]ccc56)cn4)C3)CC2)nc(C(F)(F)F)c1 (single isomer, unassigned) [Example 121, {cis-3-(4-{[4-(methoxymethyl)-6-(trifluoromethyl)pyridin-2-yl]oxy}piperidin-1-yl)-1-[4-(7H-pyrrolo[2,3-d]pyrimidin-4-yl)-1H-pyrazol-1-yl]cyclobutyl}acetonitrile] | 7.00 to 7.60 | < 7.00 | 
N#CC[C@]1(n2cc(-c3ncnc4[nH]ccc34)cn2)C[C@H](N2CCN(C(=O)N3CCCC3)CC2)C1 [Example 19, {trans-3-[4-(pyrrolidin-1-ylcarbonyl)piperazin-1-yl]-1-[4-(7H-pyrrolo[2,3-d]pyrimidin-4-yl)-1H-pyrazol-1-yl]cyclobutyl}acetonitrile] |  |  | pIC50 ([1]; Table B, read-out: JAK1 IC50): 7.60 to 8.00; pIC50 (JAK2 (a.a. 828-1132); Table B, read-out: JAK2 IC50): < 7.00
N#CC[C@]1(n2cc(-c3ncnc4[nH]ccc34)cn2)C[C@H](N2CCC(Oc3cc(CN4CCC4)nc(C(F)(F)F)n3)CC2)C1 [Example 150, {cis-3-(4-{[6-(azetidin-1-ylmethyl)-2-(trifluoromethyl)pyrimidin-4-yl]oxy}piperidin-1-yl)-1-[4-(7H-pyrrolo[2,3-d]pyrimidin-4-yl)-1H-pyrazol-1-yl]cyclobutyl}acetonitrile] | 7.60 to 8.00 | < 7.00 | 
N#CC[C@]1(n2cc(-c3ncnc4[nH]ccc34)cn2)C[C@@H](N2CCN(C(=O)c3ccc(F)c(OC(F)(F)F)c3)CC2)C1 [Example 26, {cis-3-{4-[4-fluoro-3-(trifluoromethoxy)benzoyl]piperazin-1-yl}-1-[4-(7H-pyrrolo[2,3-d]pyrimidin-4-yl)-1H-pyrazol-1-yl]cyclobutyl}acetonitrile] |  |  | pIC50 ([1]; Table A, read-out: JAK1 IC50): 7.60 to 8.00; pIC50 (JAK2 (a.a. 828-1132); Table A, read-out: JAK2 IC50): 7.00 to 7.60
CNCc1cc(OC2CCN([C@H]3C[C@](CC#N)(n4cc(-c5ncnc6[nH]ccc56)cn4)C3)CC2)nc(C(F)(F)F)c1 [Example 132, {trans-3-(4-{[4-[(methylamino)methyl]-6-(trifluoromethyl)pyridin-2-yl]oxy}piperidin-1-yl)-1-[4-(7H-pyrrolo[2,3-d]pyrimidin-4-yl)-1H-pyrazol-1-yl]cyclobutyl}acetonitrile] | > 8.00 | 7.00 to 7.60 | 
N#CC[C@]1(n2cc(-c3ncnc4[nH]ccc34)cn2)C[C@@H](N2CCC(Oc3cc(C#N)cc(C(F)(F)F)n3)CC2)C1 (single isomer, unassigned) [Example 133, 2-[(1-{cis-3-(cyanomethyl)-3-[4-(7H-pyrrolo[2,3-d]pyrimidin-4-yl)-1H-pyrazol-1-yl]cyclobutyl}piperidin-4-yl)oxy]-6-(trifluoromethyl)isonicotinonitrile] | 7.00 to 7.60 | < 7.00 | 
CN(C)Cc1cc(C#N)cc(OC2CCN([C@H]3C[C@](CC#N)(n4cc(-c5ncnc6[nH]ccc56)cn4)C3)CC2)c1 [Example 137, 3-[(1-{trans-3-(cyanomethyl)-3-[4-(7H-pyrrolo[2,3-d]pyrimidin-4-yl)-1H-pyrazol-1-yl]cyclobutyl}piperidin-4-yl)oxy]-5-[(dimethylamino)methyl]benzonitrile] | 7.60 to 8.00 | < 7.00 | 
CN(C)Cc1cc(CN2CCN([C@H]3C[C@](CC#N)(n4cc(-c5ncnc6[nH]ccc56)cn4)C3)CC2)cc(C(F)(F)F)c1 [Example 45, {trans-3-{4-[3-[(dimethylamino)methyl]-5-(trifluoromethyl)benzyl]piperazin-1-yl}-1-[4-(7H-pyrrolo[2,3-d]pyrimidin-4-yl)-1H-pyrazol-1-yl]cyclobutyl}acetonitrile] | < 7.00 | < 7.00 | 
N#CC[C@]1(n2cc(-c3ncnc4[nH]ccc34)cn2)C[C@H](N2CCN(C(=O)c3ccnc(C(F)F)c3F)CC2)C1 [Example 11b, {trans-3-{4-[2-(difluoromethyl)-3-fluoroisonicotinoyl]piperazin-1-yl}-1-[4-(7H-pyrrolo[2,3-d]pyrimidin-4-yl)-1H-pyrazol-1-yl]cyclobutyl}acetonitrile] |  |  | pIC50 ([1]; Table B, read-out: JAK1 IC50): > 8.00; pIC50 (JAK2 (a.a. 828-1132); Table B, read-out: JAK2 IC50): 7.00 to 7.60

Continued, in another order:

pIC50 ([1]; Table F) | pIC50 (JAK2 (a.a. 828-1132); Table F) | SMILES | other results
> 8.00 | 7.00 to 7.60 | N#CC[C@]1(n2cc(-c3ncnc4[nH]ccc34)cn2)C[C@H](N2CCN(C(=O)NCC3CC3)CC2)C1 [Example 92, 4-{trans-3-(cyanomethyl)-3-[4-(7H-pyrrolo[2,3-d]pyrimidin-4-yl)-1H-pyrazol-1-yl]cyclobutyl}-N-(cyclopropylmethyl)piperazine-1-carboxamide trifluoroacetate salt] | 
> 8.00 | 7.60 to 8.00 | N#CC[C@]1(n2cc(-c3ncnc4[nH]ccc34)cn2)C[C@H](N2CCN(C(=O)c3cc(C4(O)CCC4)nc(C(F)(F)F)n3)CC2)C1 [Example 72, {trans-3-(4-{[6-(1-hydroxycyclobutyl)-2-(trifluoromethyl)pyrimidin-4-yl]carbonyl}piperazin-1-yl)-1-[4-(7H-pyrrolo[2,3-d]pyrimidin-4-yl)-1H-pyrazol-1-yl]cyclobutyl}acetonitrile] | 
7.60 to 8.00 | 7.00 to 7.60 | N#CC[C@]1(n2cc(-c3ncnc4[nH]ccc34)cn2)C[C@H](N2CCN(C(=O)N[C@H]3CC[C@H](O)CC3)CC2)C1 [Example 86, 4-{trans-3-(cyanomethyl)-3-[4-(7H-pyrrolo[2,3-d]pyrimidin-4-yl)-1H-pyrazol-1-yl]cyclobutyl}-N-(trans-4-hydroxycyclohexyl)piperazine-1-carboxamide] | 
> 8.00 | 7.00 to 7.60 | N#CC[C@]1(n2cc(-c3ncnc4[nH]ccc34)cn2)C[C@H](N2CCN(C(=O)N[C@H]3CCC[C@@H]3O)CC2)C1 (racemic) [Example 88, 4-{trans-3-(cyanomethyl)-3-[4-(7H-pyrrolo[2,3-d]pyrimidin-4-yl)-1H-pyrazol-1-yl]cyclobutyl}-N-(2-hydroxycyclopentyl)piperazine-1-carboxamide] | 
> 8.00 | < 7.00 | C[C@@H](NC(=O)N1CCN([C@H]2C[C@](CC#N)(n3cc(-c4ncnc5[nH]ccc45)cn3)C2)CC1)C(F)(F)F [Example 113, 4-{trans-3-(cyanomethyl)-3-[4-(7H-pyrrolo[2,3-d]pyrimidin-4-yl)-1H-pyrazol-1-yl]cyclobutyl}-N-[(1R)-2,2,2-trifluoro-1-methylethyl]piperazine-1-carboxamide] | 
7.60 to 8.00 | < 7.00 | CC(C)(C)CNC(=O)N1CCN([C@H]2C[C@](CC#N)(n3cc(-c4ncnc5[nH]ccc45)cn3)C2)CC1 [Example 100, 4-{trans-3-(cyanomethyl)-3-[4-(7H-pyrrolo[2,3-d]pyrimidin-4-yl)-1H-pyrazol-1-yl]cyclobutyl}-N-(2,2-dimethylpropyl)piperazine-1-carboxamide] | 
7.60 to 8.00 | < 7.00 | CC[C@H](C)NC(=O)N1CCN([C@H]2C[C@@](CC#N)(n3cc(-c4ncnc5[nH]ccc45)cn3)C2)CC1 [Example 106, 4-{cis-3-(cyanomethyl)-3-[4-(7H-pyrrolo[2,3-d]pyrimidin-4-yl)-1H-pyrazol-1-yl]cyclobutyl}-N-[(1S)-1-methylpropyl]piperazine-1-carboxamide] | 

From US10640506B2, “Cyclobutyl substituted pyrrolopyridine and pyrrolopyrimidines derivatives as JAK inhibitors” (Incyte Corporation, priority 2010, dated 2020)
